Measurements as given in patent publication US20260014170A1, “PRODRUGS FOR DELIVERY OF TE[…] THE CENTRAL NERVOUS SYSTEM” (The Johns Hopkins University, priority 2022, published 2026).

Key:
[1] = In vitro metabolic stability in rat brain homogenates; format: in vitro ADME; conditions: 10 μM, 37° C., 0 hour to 1 hour, n=3
Experimental: In vitro metabolic stability assessment was performed using brain homogenates. For the brain homogenates washed tissues were diluted 10-fold in 0.1-M potassium phosphate buffer and homogenized using a probe sonicator. […] Samples from each incubation at predetermined time points (0, 0.5, and 1h) were quenched with 3X volumes of acetonitrile containing the internal standard (IS; losartan: 0.5 μm). […] Disappearance of the intact compound and release of Testosterone were measured using liquid chromatography tandem mass spectrometry (LC-MS; full scan mode).
The metabolic stability of prodrugs (n=3) was evaluated using rat brain homogenates. The rat brain was homogenized using 100-mM phosphate buffer with 1:10 dilution (w/v). 10 μM concentration of the compounds was incubated at 37° C. and stability was evaluated from 0 hour to 1 hour. After incubation samples were precipitated using acetonitrile containing internal standard and quantified using high-resolution LC-MS/MS.

[2] = female rats, IN, 1.1 mg/kg equivalent of Testosterone, 1h post dose
Experimental: All prodrugs were administered intranasally (IN) at a dose of 1.1 mg/kg equivalent of Testosterone using a formulation of 5% Tween-80, 5% DMSO and 90% PBS containing 10 mM HEPES. Blood and brain were collected after sacrificing the animals at predetermined time point. Plasma was harvested from blood by centrifugation at 3,000 RPM for 15 min and stored at −80° C. Brain tissues were harvested following blood collection and immediately snap frozen in liquid nitrogen and stored at −80° C. until LC-MS/MS analysis. Calibration standards were prepared using naïve female rat plasma or brain with additions of respective prodrugs. For quantifying the released testosterone in the pharmacokinetic samples, plasma samples (20 μL) were processed by protein precipitation method by addition of 200 μL of acetonitrile containing internal standard (losartan: 0.5 μM), followed by vortex-mixing for 30 s and then centrifugation at 10,000 RPM for 10 min at 4° C. Brain tissues were diluted 1:5 w/v with acetonitrile containing losartan (0.5 μm) and homogenized, followed by vortex-mixing and centrifugation at 10,000 RPM for 10 min at 4° C. A 50 μL aliquot of the supernatant was diluted with 50 μL of water and transferred to 250 μL polypropylene autosampler vials sealed with teflon caps. Then, 2 μL of the sample was injected into the LC-MS/MS system for analysis.
The in vivo pharmacokinetics of prodrugs (P1, P3, P4, P5, P6, P7, P8, P9, P10, P11, P12, P13 and P14) were evaluated in female rats.

Row | SMILES | stability in rat brain homogenate [1] | levels of testosterone release [2] | plasma levels compared with testosterone [2] | stable in brain homogenate [1]
1 | C[C@]12CC[C@H]3[C@@H](CCC4=CC(=O)CC[C@@]43C)[C@@H]1CC[C@@H]2OC(=O)CN1CCOCC1 [Prodrug P6, (8R,9S,10R,13S,14S,17S)-10,13-Dimethyl-3-oxo-2,3,6,7,8,9,10,11,12,13,14,15,16,17-tetradecahydro-1H-cyclopenta[α]phenanthren-17-yl 2-morpholinoacetate] | stable | low levels |  | 
2 | CC(=O)N[C@@H](CCC(=O)O[C@H]1CC[C@H]2[C@@H]3CCC4=CC(=O)CC[C@]4(C)[C@H]3CC[C@]12C)C(=O)O [Prodrug P13, (S)-2-Acetamido-5-(((8R,9S,10R,13S,14S,17S)-10,13-dimethyl-3-oxo-2,3,6,7,8,9,10,11,12,13,14,15,16,17-tetradecahydro-1H-cyclopenta[α]phenanthren-17-yl)oxy)-5-oxopentanoic acid] | stable | low levels |  | 
3 | C[C@]12CC[C@H]3[C@@H](CCC4=CC(=O)CC[C@@]43C)[C@@H]1CC[C@@H]2OC(=O)CNC(=O)CN [Prodrug P10, (8R,9S,10R,13S,14S,17S)-10,13-Dimethyl-3-oxo-2,3,6,7,8,9,10,11,12,13,14,15,16,17-tetradecahydro-1H-cyclopenta[α]phenanthren-17-yl glycylglycinate] | moderately stable |  |  | 
4 | CC(C)C[C@H](NC(=O)CN(C)C)C(=O)O[C@H]1CC[C@H]2[C@@H]3CCC4=CC(=O)CC[C@]4(C)[C@H]3CC[C@]12C [Prodrug P11, (8R,9S,10R,13S,14S,17S)-10,13-Dimethyl-3-oxo-2,3,6,7,8,9,10,11,12,13,14,15,16,17-tetradecahydro-1H-cyclopenta[α]phenanthren-17-yl dimethylglycyl-L-leucinate] | stable |  |  | 
5 | CN(C)CC(=O)NCC(=O)NCC(=O)O[C@H]1CC[C@H]2[C@@H]3CCC4=CC(=O)CC[C@]4(C)[C@H]3CC[C@]12C [Prodrug P9, (8R,9S,10R,13S,14S,17S)-10,13-Dimethyl-3-oxo-2,3,6,7,8,9,10,11,12,13,14,15,16,17-tetradecahydro-1H-cyclopenta[α]phenanthren-17-yl dimethylglycylglycylglycinate] | stable |  |  | 
6 | C[C@]12CC[C@H]3[C@@H](CCC4=CC(=O)CC[C@@]43C)[C@@H]1CC[C@@H]2OC(=O)CC[C@H](N)C(=O)O [Prodrug P14, (S)-2-Amino-5-(((8R,9S,10R,13S,14S,17S)-10,13-dimethyl-3-oxo-2,3,6,7,8,9,10,11,12,13,14,15,16,17-tetradecahydro-1H-cyclopenta[α]phenanthren-17-yl)oxy)-5-oxopentanoic acid] | stable | low levels |  | 
7 | CN1CCN(CC(=O)O[C@H]2CC[C@H]3[C@@H]4CCC5=CC(=O)CC[C@]5(C)[C@H]4CC[C@]23C)CC1 [Prodrug P5, (8R,9S,10R,13S,14S,17S)-10,13-Dimethyl-3-oxo-2,3,6,7,8,9,10,11,12,13,14,15,16,17-tetradecahydro-1H-cyclopenta[α]phenanthren-17-yl 2-(4-methylpiperazin-1-yl)acetate] | stable | low levels |  | 
8 | C[C@]12CC[C@H]3[C@@H](CCC4=CC(=O)CC[C@@]43C)[C@@H]1CC[C@@H]2OC(=O)C(Cl)Cl [Prodrug P7, (8R,9S,10R,13S,14S,17S)-10,13-Dimethyl-3-oxo-2,3,6,7,8,9,10,11,12,13,14,15,16,17-tetradecahydro-1H-cyclopenta[α]phenanthren-17-yl 2,2-dichloroacetate] | moderately stable |  |  | 
9 | CN(C)CC(=O)N[C@@H](Cc1ccccc1)C(=O)O[C@H]1CC[C@H]2[C@@H]3CCC4=CC(=O)CC[C@]4(C)[C@H]3CC[C@]12C [Prodrug P12, (8R,9S,10R,13S,14S,17S)-10,13-Dimethyl-3-oxo-2,3,6,7,8,9,10,11,12,13,14,15,16,17-tetradecahydro-1H-cyclopenta[α]phenanthren-17-yl dimethylglycyl-L-phenylalaninate] | stable |  | lower | 
10 | CN(C)CC(=O)NCC(=O)O[C@H]1CC[C@H]2[C@@H]3CCC4=CC(=O)CC[C@]4(C)[C@H]3CC[C@]12C [Prodrug P8, (8R,9S,10R,13S,14S,17S)-10,13-Dimethyl-3-oxo-2,3,6,7,8,9,10,11,12,13,14,15,16,17-tetradecahydro-1H-cyclopenta[α]phenanthren-17-yl dimethylglycylglycinate] | stable | low levels |  | 
11 | CN(C)CC(=O)O[C@H]1CC[C@H]2[C@@H]3CCC4=CC(=O)CC[C@]4(C)[C@H]3CC[C@]12C [Prodrug P3, (8R,9S,10R,13S,14S,17S)-10,13-Dimethyl-3-oxo-2,3,6,7,8,9,10,11,12,13,14,15,16,17-tetradecahydro-1H-cyclopenta[α]phenanthren-17-yl dimethylglycinate] | moderately stable |  | lower | 
12 | CC(C)[C@H](N)C(=O)N[C@@H](C(=O)O[C@H]1CC[C@H]2[C@@H]3CCC4=CC(=O)CC[C@]4(C)[C@H]3CC[C@]12C)C(C)C [Prodrug P4, (8R,9S,10R,13S,14S,17S)-10,13-Dimethyl-3-oxo-2,3,6,7,8,9,10,11,12,13,14,15,16,17-tetradecahydro-1H-cyclopenta[α]phenanthren-17-yl L-valyl-D-valinate] |  | low levels |  | 
13 | CC(C)OC(=O)OCO[C@H]1CC[C@H]2[C@@H]3CCC4=CC(=O)CC[C@]4(C)[C@H]3CC[C@]12C [Prodrug P1, (((8R,9S,10R,13S,14S,17S)-10,13-Dimethyl-3-oxo-2,3,6,7,8,9,10,11,12,13,14,15,16,17-tetradecahydro-1H-cyclopenta[α]phenanthren-17-yl)oxy)methyl isopropyl carbonate] |  |  | lower | 20%
